Measurements: patent publication US11246818B2, “Peptides and compositions for use in cosmetics” (LIPOTRUE, S.L., priority 2017, dated 2022)

What was measured:
[1] = Trolox Equivalent Antioxidant Capacity (TEAC), ABTS Decolorization Assay; format: biochemical
Description: As positive controls of the assay, ascorbic acid 2-glucoside (hereinafter, AA-2G) and magnesium ascorbyl phosphate (hereinafter, MAP) were tested.
TEAC assay was used in this case. Said assay measures the antioxidant capacity of a given substance, as compared to the standard, Trolox, an analogue of Vitamin E.
Antioxidant capacity was measured using the ABTS Decolorization Assay. In this assay, the pre-formed radical monocation of 2,2′-azinobis-(3-ethylbenzothiazoline-6-sulfonic acid) (ABTS*+) was generated by oxidation of ABTS with potassium persulfate and was reduced in the presence of antioxidants (Ac-SEQ ID NO: 1-NH2, Ac-SEQ ID NO: 2-NH2, Ac-SEQ ID NO: 3-NH2 or Ferulic acid-SEQ ID NO: 2-NH2). The ABTS.+ has a blue-green color, with maximum absorptions at 650, 734 and 820 nm. Antioxidants in the sample reduce ABTS.+ suppressing this color production to a degree that is proportional to their concentrations and antioxidant capacity. Quantification of absorbance was conducted at 734 nm using a Polarstar Omega equipment (BMG Labtech).

[2] = DPPH free radical scavenging assay in tubo; format: biochemical
Description: The capacity to scavenge the stable DPPH free radical can be expressed as a measure of antioxidant activity.
During this assay, the purple chromogen (DPPH) radical was reduced by antioxidant/reducing compounds to the corresponding pale-yellow hydrazine. The reduction of the purple chromogen radical by hydrogen-donating antioxidants was monitored by the decrease of optical density at long wavelengths (515-520 nm).
Ascorbic acid was also included in the assay as positive control for scavenger activity evaluation at 30 μM and 60 μM. After 30 minutes of incubation at room temperature and gentle shaking, the absorbance at 520 nm of each well was determined using the microplate reader Multiskan FC (Thermo Fisher Scientific, MA, USA), being directly proportional to the amount of DPPH left (not-scavenged) in the reaction mixture. Absorbance values were normalized on the basis of the control (non-treated wells) which was stablished as 100%, obtaining the corresponding percentage of activity for each of the treatments.

[3] = system: Primary human epidermal melanocytes; test: Brightening activity: intracellular melanin content; format: cell-based; conditions: 7 days; for decrease in melanin content compared with positive reference control (kojic acid): 70 μM kojic acid
Description: Two concentrations of kojic acid were used as positive control.
(§1) Kojic acid was used as positive control.
Primary human epidermal melanocytes were incubated in 6-well plates for 4 days and then treated with the compounds to be analysed (Ac-SEQ ID NO: 1-NH2, Ac-SEQ ID NO: 2-NH2, Ac-SEQ ID NO: 3-NH2 or Ferulic acid-SEQ ID NO: 2-NH2) for 7 days. After treatment, cells were homogenized an intracellular melanin content was quantified by absorbance at 450 nm by Multiskan FC (Thermo Fisher Scientific, MA, USA).

[4] = system: recombinant mushroom tyrosinase; test: Mushroom tyrosinase activity in tubo (L-DOPA); format: biochemical
Description: as §1, §1
After 2 hours' reaction at room temperature, the absorbance at 450 nm of each well was determined using the microplate reader Multiskan FC (Thermo Fisher Scientific, MA, USA), which is directly proportional to the amount of dopachrome in the reaction mixture.

HEMn cells [5] = test: Gene expression of melanogenic pathways, HEMn cells, 11-day treatment (RTqPCR); format: cell-based, human
Description: Changes in gene expression levels are represented as a positive or negative fold-change with regard to the basal control (untreated cells). For FIG. 16(A), bars from top to bottom in the y-axis refer to: COX-1 (Cyclooxigenase-1), MITF ([…]), MC1R (Melanocortin-1 receptor), MLAN-A (Melanoma antigen recognized by T-cells), C-KIT (Protoongogen receptor tyrosine kinase KIT), PMEL17 (Pre-melanosome protein), DCT-TYRP2 (Dopachrome tautomerase), TYRP-1 (Tyrosinase related protein 1) and TYR (Tyrosinase). For FIG. 16(B), bars from top to bottom in the y-axis refer to: BLOC-1 (Biogenesis of lysosome-related organelles complex-1), MITF ([…]), MC1R (Melanocortin-1 receptor), MLAN-A (Melanoma antigen recognized by T-cells), C-KIT (Protoongogen receptor tyrosine kinase KIT), PMEL17 (Pre-melanosome protein), DCT-TYRP2 (Dopachrome tautomerase), TYRP-1 (Tyrosinase related protein 1) and TYR (Tyrosinase). The x-axis refers to fold change versus basal control.
Changes in gene expression levels are represented as a positive or negative fold-change with regard to the basal control (untreated cells). Bars from top to bottom in the y-axis refer to: VDR (Vitamin D receptor), PMEL17 (Pre-melanosome protein) and DCT-TYRP2 (Dopachrome tautomerase). The x-axis refers to fold change versus basal control.
In the case of HEMn cells, cells were left in culture for 12 days (from day 0 to day 11, 11-day treatment) at standard culture conditions (37° C., 95% humidity, 5% CO2) and treated with non-cytotoxic concentrations of Ac-SEQ ID NO: 3-NH2 (0.1 mg/mL) or Ferulic acid-SEQ ID NO: 2-NH2 (0.05 mg/mL) from day 4 to day 11.
(§2) Untreated cells were used as basal control. Cells were then lysed for RNA extraction with a RNA purification commercial kit following manufacturer instructions (RNeasy mini kit, Qiagen, Netherlands). RNA was then quantified by nanodrop, adjusted in concentration and processed for retrotranscription to cDNA using a commercially available kit (High-Capacity cDNA Reverse Transcription kit—Thermofisher Scientific, USA). Resulting cDNA was used to perform a RTqPCR (Real Time Quantitative Polymerase Chain Reaction) using Taqman technology and a panel of probes designed to target specific genes related to melanogenesis and HEMn-HEKa and HEMn-HDFa communication.

HEKa cells = test: Gene expression of HEMn-HEKa communication and melanogenic factors, HEKa cells, 24-hour treatment (RTqPCR); format: cell-based, human
Description: (§3) Changes in gene expression levels are represented as a positive or negative fold-change with regard to the basal control (untreated cells). Bars from top to bottom in the y-axis refer to: KITLG (KIT ligand), TP53 (Tumor protein p53), DKK1 (Dickkopf-related protein 1) and NGF (Nerve growth factor). The x-axis refers to fold change verus basal control.
as §3, with “POMC (Pro-opiomelanocortin), EDN1 (Endothelin-1)” for “TP53 (Tumor protein p53), DKK1 (Dickkopf-related protein 1)”, “versus” for “verus”
Briefly, HEKa cells were seeded in duplicate in 6-well plates at a density of 4×10^5 cells/well and maintained at standard culture conditions (37° C., 95% humidity, 5% CO2) for 24 hours. Then, cells were treated with non-cytotoxic concentrations of Ac-SEQ ID NO: 3-NH2 (0.1 mg/mL) or Ferulic acid-SEQ ID NO: 2-NH2 (0.05 mg/mL) for an additional 24 hours.
as §2

HEMn cells [6] = test: Gene expression of melanogenic pathways, HEMn cells, 24-hour treatment (RTqPCR); format: cell-based, human; conditions: 0.1 mg/mL, treatment at 24 h
Description: Changes in gene expression levels are represented as a positive or negative fold-change with regard to the basal control (untreated cells). For FIG. 16(A), bars from top to bottom in the y-axis refer to: COX-1 (Cyclooxigenase-1), MITF ([…]), MC1R (Melanocortin-1 receptor), MLAN-A (Melanoma antigen recognized by T-cells), C-KIT (Protoongogen receptor tyrosine kinase KIT), PMEL17 (Pre-melanosome protein), DCT-TYRP2 (Dopachrome tautomerase), TYRP-1 (Tyrosinase related protein 1) and TYR (Tyrosinase). […]
as §2, with “Cells were then lysed for RNA extraction with a RNA purification commercial kit following manufacturer instructions (RNeasy mini kit, Qiagen, Netherlands).” left out

Ferulic acid-His-Trp-Phe-Lys-NH2 [Ferulic acid-SEQ ID NO: 2-NH2]
trolox equivalents ([1]; 0.01 mg/mL): 59 µM
trolox equivalents ([1]; 0.05 mg/mL): 112 µM
trolox equivalents ([1]; 0.1 mg/mL): 113 µM
antioxidant power compared with MAP ([1]; at this same concentration (0.05 mg/mL)): equals MAP values of trolox equivalents
antioxidant power compared with AA-2G ([1]; concentrations >0.05 mg/mL): higher than the one of AA-2G
reduction of DPPH ([2]; 0.05 mg/mL, 300 μM DPPH, 30 minutes): 48.3%
reduction of DPPH ([2]; 0.1 mg/mL, 300 μM DPPH, 30 minutes): 72.9%
reduction of DPPH ([2]; 0.5 mg/mL, 300 μM DPPH, 30 minutes): 90.6%
decrease in melanin content ([3]; 0.05 mg/mL): 36%
decrease in melanin content compared with positive reference control (kojic acid) [3]: comparable
decrease in tyrosinase activity ([4]; 0.05 mg/mL): 12%
decrease in tyrosinase activity ([4]; 0.1 mg/mL): 46.5%
decrease in tyrosinase activity ([4]; 0.5 mg/mL): 71%
DCT-TYRP2 expression (HEMn cells [5]; 0.05 mg/mL): slight tendency to downregulate
PMEL17 expression (HEMn cells [5]; 0.05 mg/mL): slight tendency to downregulate
VDR gene expression, fold change versus basal control (HEMn cells [5]; 0.05 mg/mL): 1.48 fold change
EDN1 gene expression (HEKa cells; 0.05 mg/mL): downregulation
KITLG gene expression (HEKa cells; 0.05 mg/mL): downregulation
NGF gene expression (HEKa cells; 0.05 mg/mL): downregulation
POMC gene expression (HEKa cells; 0.05 mg/mL): downregulation

Ac-Leu-His-Trp-Phe-Arg-Ala-NH2 (Ac-LHWFRA-NH2) [Ac-SEQ ID NO: 3-NH2]
trolox equivalents ([1]; 0.01 mg/mL): 28 µM
trolox equivalents ([1]; 0.05 mg/mL): 59 µM
trolox equivalents ([1]; 0.1 mg/mL): 74 µM
decrease in melanin content ([3]; 0.1 mg/mL): 49.3%
decrease in melanin content compared with positive reference control (kojic acid) [3]: higher than the positive reference control
decrease in tyrosinase activity ([4]; 0.5 mg/mL): 30.6%
decrease in tyrosinase activity ([4]; 1 mg/mL): 58.1%
C-KIT gene expression, fold change versus basal control (HEMn cells [5]; 0.1 mg/mL): −1.78 fold change
COX-1 gene expression, fold change versus basal control (HEMn cells [5]; 0.1 mg/mL): −1.51 fold change
DCT-TYRP2 gene expression, fold change versus basal control (HEMn cells [5]; 0.1 mg/mL): −1.40 fold change
MC1R gene expression, fold change versus basal control (HEMn cells [5]; 0.1 mg/mL): −1.28 fold change
MITF gene expression, fold change versus basal control (HEMn cells [5]; 0.1 mg/mL): −1.48 fold change
MLAN-A gene expression, fold change versus basal control (HEMn cells [5]; 0.1 mg/mL): −1.88 fold change
PMEL17 gene expression, fold change versus basal control (HEMn cells [5]; 0.1 mg/mL): −2.30 fold change
TYR gene expression, fold change versus basal control (HEMn cells [5]; 0.1 mg/mL): −1.66 fold change
TYRP-1 gene expression, fold change versus basal control (HEMn cells [5]; 0.1 mg/mL): −1.64 fold change
expression of genes of the melanogenic pathway (HEMn cells [6]): tendency to downregulate gene expression was also observed
DKK-1 gene expression (HEKa cells; 0.1 mg/mL): upregulation
KITLG gene expression (HEKa cells; 0.1 mg/mL): downregulation
NGF gene expression (HEKa cells; 0.1 mg/mL): downregulation
TP53 gene expression (HEKa cells; 0.1 mg/mL): downregulation

O=C1O[C@H]([C@@H](O)CO)C(O)=C1O [ascorbic acid, reference compound]
reduction of DPPH ([2]; 30 μM, positive control): 31.3%
reduction of DPPH ([2]; 60 μM, positive control): 67.6%

Ac-His-Trp-Phe-Lys-NH2 (Ac-HWFK-NH2) [Ac-SEQ ID NO: 2-NH2]
trolox equivalents ([1]; 0.05 mg/mL): 22 µM
trolox equivalents ([1]; 0.1 mg/mL): 49 µM
trolox equivalents ([1]; 0.5 mg/mL): 130 µM
antioxidant power compared with AA-2G and MAP ([1]; the higher concentration tested (0.5 mg/mL)): higher antioxidant power than AA-2G and MAP
brightening or whitening activity compared with kojic acid ([3]; all the concentrations tested (0.01, 0.05, 0.1 mg/ml), kojic acid 10 and 50 μM): significantly higher brightening or whitening activity
increased brightening activity relative to the activity of the two concentrations of kojic acid ([3]; all the concentrations tested, kojic acid 10 and 50 μM): two to more than four times
